Assay results as given in ChEMBL document CHEMBL4251615, “Discovery of anilino-furo[2,3-d]pyrimidine derivatives as dual inhibitors of EGFR/HER2 tyrosine kinase and their anticancer activity” (Eur J Med Chem, 2018).

Key:
[1] = tested on: NCI-H460; test: Growth inhibition of human NCI-H460 cells assessed as cell growth at 10 uM incubated for 48 hrs by sulforhodamine B assay relative to control; assay type: functional; conditions: NCI-H460, 48 h, read-out: Activity
[2] = tested on: MDA-MB-231; test: Growth inhibition of human MDA-MB-231 cells assessed as cell growth at 10 uM incubated for 48 hrs by sulforhodamine B assay relative to control; assay type: functional; conditions: MDA-MB-231, 48 h, read-out: Activity
[3] = tested on: M14; test: Growth inhibition of human M14 cells assessed as cell growth at 10 uM incubated for 48 hrs by sulforhodamine B assay relative to control; assay type: functional; conditions: M14, 48 h, read-out: Activity
[4] = tested on: BT-549; test: Growth inhibition of human BT549 cells assessed as cell growth at 10 uM incubated for 48 hrs by sulforhodamine B assay relative to control; assay type: functional; conditions: BT-549, 48 h, read-out: Activity
[5] = target: Epidermal growth factor receptor (Homo sapiens, UniProt P00533); test: Inhibition of recombinant human C-terminal His/N-terminal GST-tagged EGFR (668 to 1210 residues) expressed in baculovirus infected Sf9 cells at 10 uM using biotin-labeled poly[Glu:Tyr] (4:1) as substrate after 30 mins by Kinase-Glo plus luminescence assay relative to control
[6] = tested on: NCI-H322M; test: Growth inhibition of human NCI-H322M cells assessed as cell growth at 10 uM incubated for 48 hrs by sulforhodamine B assay relative to control; assay type: functional; conditions: read-out: Activity
[7] = tested on: HCT-15; test: Growth inhibition of human HCT15 cells assessed as cell growth at 10 uM incubated for 48 hrs by sulforhodamine B assay relative to control; assay type: functional; conditions: HCT-15, 48 h, read-out: Activity
[8] = tested on: SN12C; test: Growth inhibition of human SN12C cells assessed as cell growth at 10 uM incubated for 48 hrs by sulforhodamine B assay relative to control; assay type: functional; conditions: read-out: Activity
[9] = tested on: NCI-H522; test: Growth inhibition of human NCI-H522 cells assessed as cell growth at 10 uM incubated for 48 hrs by sulforhodamine B assay relative to control; assay type: functional; conditions: NCI-H522, 48 h, read-out: Activity
[10] = tested on: MCF7; test: Growth inhibition of human MCF7 cells assessed as cell growth at 10 uM incubated for 48 hrs by sulforhodamine B assay relative to control; assay type: functional; conditions: MCF7, 48 h, read-out: Activity
[11] = tested on: SF-268; test: Growth inhibition of human SF268 cells assessed as cell growth at 10 uM incubated for 48 hrs by sulforhodamine B assay relative to control; assay type: functional; conditions: SF-268, 48 h, read-out: Activity
[12] = tested on: SR; test: Growth inhibition of human SR cells assessed as cell growth at 10 uM incubated for 48 hrs by sulforhodamine B assay relative to control; assay type: functional; conditions: read-out: Activity
[13] = tested on: NCI-H226; test: Growth inhibition of human NCI-H226 cells assessed as cell growth at 10 uM incubated for 48 hrs by sulforhodamine B assay relative to control; assay type: functional; conditions: NCI-H226, 48 h, read-out: Activity
[14] = tested on: HL-60(TB); test: Growth inhibition of human HL-60(TB) cells assessed as cell growth at 10 uM incubated for 48 hrs by sulforhodamine B assay relative to control; assay type: functional; conditions: HL-60, 48 h, read-out: Activity
[15] = tested on: EKVX; test: Growth inhibition of human EKVX cells assessed as cell growth at 10 uM incubated for 48 hrs by sulforhodamine B assay relative to control; assay type: functional; conditions: read-out: Activity
[16] = tested on: OVCAR-5; test: Growth inhibition of human OVCAR5 cells assessed as cell growth at 10 uM incubated for 48 hrs by sulforhodamine B assay relative to control; assay type: functional; conditions: OVCAR-5, 48 h, read-out: Activity
[17] = tested on: SF-539; test: Growth inhibition of human SF539 cells assessed as cell growth at 10 uM incubated for 48 hrs by sulforhodamine B assay relative to control; assay type: functional; conditions: SF-539, 48 h, read-out: Activity
[18] = tested on: OVCAR-8; test: Growth inhibition of human OVCAR8 cells assessed as cell growth at 10 uM incubated for 48 hrs by sulforhodamine B assay relative to control; assay type: functional; conditions: OVCAR-8, 48 h, read-out: Activity
[19] = tested on: MDA-MB-468; test: Growth inhibition of human MDA-MB-468 cells assessed as cell growth at 10 uM incubated for 48 hrs by sulforhodamine B assay relative to control; assay type: functional; conditions: MDA-MB-468, 48 h, read-out: Activity
[20] = tested on: NCI-H23; test: Growth inhibition of human NCI-H23 cells assessed as cell growth at 10 uM incubated for 48 hrs by sulforhodamine B assay relative to control; assay type: functional; conditions: NCI-H23, 48 h, read-out: Activity
[21] = tested on: UO-31; test: Growth inhibition of human UO31 cells assessed as cell growth at 10 uM incubated for 48 hrs by sulforhodamine B assay relative to control; assay type: functional; conditions: UO-31, 48 h, read-out: Activity
[22] = tested on: Hs-578T; test: Growth inhibition of human Hs 578T cells assessed as cell growth at 10 uM incubated for 48 hrs by sulforhodamine B assay relative to control; assay type: functional; conditions: read-out: Activity
[23] = tested on: COLO 205; test: Growth inhibition of human COLO205 cells assessed as cell growth at 10 uM incubated for 48 hrs by sulforhodamine B assay relative to control; assay type: functional; conditions: COLO 205, 48 h, read-out: Activity
[24] = tested on: 786-0; test: Growth inhibition of human 786-0 cells assessed as cell growth at 10 uM incubated for 48 hrs by sulforhodamine B assay relative to control; assay type: functional; conditions: 786-0, 48 h, read-out: Activity
[25] = tested on: UACC-62; test: Growth inhibition of human UACC62 cells assessed as cell growth at 10 uM incubated for 48 hrs by sulforhodamine B assay relative to control; assay type: functional; conditions: UACC-62, 48 h, read-out: Activity
[26] = tested on: CCRF-CEM; test: Growth inhibition of human CCRF-CEM cells assessed as cell growth at 10 uM incubated for 48 hrs by sulforhodamine B assay relative to control; assay type: functional; conditions: read-out: Activity
[27] = tested on: ACHN; test: Growth inhibition of human ACHN cells assessed as cell growth at 10 uM incubated for 48 hrs by sulforhodamine B assay relative to control; assay type: functional; conditions: read-out: Activity
[28] = tested on: A498; test: Growth inhibition of human A498 cells assessed as cell growth at 10 uM incubated for 48 hrs by sulforhodamine B assay relative to control; assay type: functional; conditions: A498, 48 h, read-out: Activity
[29] = tested on: K562; test: Growth inhibition of human K562 cells assessed as cell growth at 10 uM incubated for 48 hrs by sulforhodamine B assay relative to control; assay type: functional; conditions: K562, 48 h, read-out: Activity
[30] = tested on: HCC 2998; test: Growth inhibition of human HCC2998 cells assessed as cell growth at 10 uM incubated for 48 hrs by sulforhodamine B assay relative to control; assay type: functional; conditions: HCC 2998, 48 h, read-out: Activity
[31] = tested on: MOLT-4; test: Growth inhibition of human MOLT4 cells assessed as cell growth at 10 uM incubated for 48 hrs by sulforhodamine B assay relative to control; assay type: functional; conditions: MOLT-4, 48 h, read-out: Activity
[32] = tested on: SK-OV-3; test: Growth inhibition of human SKOV3 cells assessed as cell growth at 10 uM incubated for 48 hrs by sulforhodamine B assay relative to control; assay type: functional; conditions: SK-OV-3, 48 h, read-out: Activity

Epidermal growth factor receptor, sequence (P00533 whole entry, the tested form may be a part): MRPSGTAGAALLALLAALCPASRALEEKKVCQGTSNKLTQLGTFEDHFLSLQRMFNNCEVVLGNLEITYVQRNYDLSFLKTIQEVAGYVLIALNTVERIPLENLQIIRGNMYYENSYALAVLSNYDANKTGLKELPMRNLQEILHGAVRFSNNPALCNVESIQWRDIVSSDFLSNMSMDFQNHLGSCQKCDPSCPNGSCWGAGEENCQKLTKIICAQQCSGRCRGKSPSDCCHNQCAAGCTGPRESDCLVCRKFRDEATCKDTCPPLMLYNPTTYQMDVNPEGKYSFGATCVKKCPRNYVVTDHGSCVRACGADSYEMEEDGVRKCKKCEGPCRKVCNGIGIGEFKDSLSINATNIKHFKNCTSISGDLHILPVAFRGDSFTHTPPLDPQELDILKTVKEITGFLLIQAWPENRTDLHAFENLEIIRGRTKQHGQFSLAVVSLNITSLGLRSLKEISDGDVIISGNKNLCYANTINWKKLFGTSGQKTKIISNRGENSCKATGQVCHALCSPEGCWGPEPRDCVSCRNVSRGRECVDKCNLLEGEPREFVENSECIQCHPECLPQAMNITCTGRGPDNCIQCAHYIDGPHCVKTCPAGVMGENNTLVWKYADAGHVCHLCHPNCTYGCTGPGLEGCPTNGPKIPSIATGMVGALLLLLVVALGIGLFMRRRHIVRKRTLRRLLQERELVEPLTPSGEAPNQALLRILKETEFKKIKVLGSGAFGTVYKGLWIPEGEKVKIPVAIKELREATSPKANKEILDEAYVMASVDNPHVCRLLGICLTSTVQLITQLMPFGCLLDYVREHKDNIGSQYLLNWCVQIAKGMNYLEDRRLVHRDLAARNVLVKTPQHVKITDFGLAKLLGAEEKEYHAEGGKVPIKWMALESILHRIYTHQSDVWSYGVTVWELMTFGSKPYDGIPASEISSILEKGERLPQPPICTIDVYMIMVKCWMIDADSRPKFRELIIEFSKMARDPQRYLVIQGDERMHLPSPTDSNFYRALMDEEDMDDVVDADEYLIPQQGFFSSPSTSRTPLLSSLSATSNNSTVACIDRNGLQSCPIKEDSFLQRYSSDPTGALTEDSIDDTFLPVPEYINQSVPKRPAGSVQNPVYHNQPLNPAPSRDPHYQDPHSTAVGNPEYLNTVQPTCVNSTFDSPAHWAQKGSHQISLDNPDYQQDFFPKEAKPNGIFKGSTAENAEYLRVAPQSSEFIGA

Row | SMILES | growth at 10 µM [1] | growth at 10 µM [2] | growth at 10 µM [3] | growth at 10 µM [4] | inhibition [5] | growth at 10 µM [6] | growth at 10 µM [7] | growth at 10 µM [8] | growth at 10 µM [9] | growth at 10 µM [10] | growth at 10 µM [11] | growth at 10 µM [12] | growth at 10 µM [13] | growth at 10 µM [14] | growth at 10 µM [15] | growth at 10 µM [16] | growth at 10 µM [17] | growth at 10 µM [18] | growth at 10 µM [19] | growth at 10 µM [20] | also measured
1 | Cc1oc2ncnc(Nc3ccccc3)c2c1C(=O)NCCO | 98.6% | 75% | 106% | 90.1% | 8% | 108% | 98% | 93.2% | 96.6% | 98.6% | 99.8% | 52.2% | 106% | 64.9% | 97.6% | 93.2% | 88.6% | 113% | 109% | 92% | growth at 10 µM [21]: 87.7%; growth at 10 µM [22]: 90.5%; growth at 10 µM [23]: 100%; growth at 10 µM [24]: 98.7%; growth at 10 µM [25]: 86.2%; growth at 10 µM [26]: 97.4%; growth at 10 µM [27]: 91.8%; growth at 10 µM [28]: 78.2%; growth at 10 µM [29]: 29.4%; growth at 10 µM [30]: 103%; growth at 10 µM [31]: -0.28%; growth at 10 µM [32]: 100%
2 | Cc1cccc(Nc2ncnc3oc(C)c(C(=O)NCCN4CCOCC4)c23)c1 | 105% | 81.8% | 99.8% | 90.7% | 30% | 101% | 94.9% | 94.3% | 89.9% | 96.2% | 93.3% | 126% | 94.9% | 92.4% | 92.6% | 81.8% | 95.4% | 109% | 89.4% | 92.5% | growth at 10 µM [21]: 75.6%; growth at 10 µM [22]: 88.5%; growth at 10 µM [23]: 101%; growth at 10 µM [24]: 92.4%; growth at 10 µM [25]: 84.6%; growth at 10 µM [26]: 99.7%; growth at 10 µM [27]: 93.6%; growth at 10 µM [28]: 68.9%; growth at 10 µM [29]: 98.3%; growth at 10 µM [30]: 97.1%; growth at 10 µM [31]: 111%; growth at 10 µM [32]: 111%
3 | CCCNC(=O)c1c(C)oc2ncnc(Nc3cccc(Cl)c3)c12 | 107% | 88.2% | 115% | 102% | 65% | 103% | 101% | 99.4% | 54.9% | 93.5% | 95.5% | 86% | 90% | 96.3% | 98.8% | 112% | 99.1% | 96.8% | 81.7% | 91.5% | growth at 10 µM [21]: 72.4%; growth at 10 µM [22]: 104%; growth at 10 µM [23]: 104%; growth at 10 µM [24]: 105%; growth at 10 µM [25]: 83.4%; growth at 10 µM [26]: 93.9%; growth at 10 µM [27]: 107%; growth at 10 µM [28]: 74.3%; growth at 10 µM [29]: 90.1%; growth at 10 µM [30]: 123%; growth at 10 µM [31]: 95.4%; growth at 10 µM [32]: 85.6%
4 | CCOC(=O)c1c(C)oc2ncnc(Nc3ccc(OCc4cccc(F)c4)cc3)c12 | 68.4% | 101% | 97.5% | 100% | 34% | 101% | 98.5% | 90.3% | 85% | 99.3% | 98.8% | 104% | 87.6% | 109% | 94.4% | 94% | 94.4% | 97.6% | 90.6% | 91.8% | growth at 10 µM [21]: 85%; growth at 10 µM [22]: 87.7%; growth at 10 µM [23]: 84.2%; growth at 10 µM [24]: 86.1%; growth at 10 µM [25]: 80.3%; growth at 10 µM [26]: 91.2%; growth at 10 µM [27]: 62.1%; growth at 10 µM [28]: 91.6%; growth at 10 µM [29]: 107%; growth at 10 µM [30]: 108%; growth at 10 µM [31]: 107%; growth at 10 µM [32]: 104%
